Results on one compound are retold here after US12517131B2, “Methods for labeling eukaryotic cells from a multicellular organism as well as for treating and/or diagnosing a cancer using modified monosaccharide compounds” (DIAMIDEX, priority 2019, dated 2026).

Molecules are shown by their SMILES.

What all share (assay): Labeling of cancer and non-cancer cells, fluorescence signal ratio
What all share (format): cell-based, human

In one test the test system is A431 (vs Hacat). The note with it: A431 (30 h) vs Hacat (30 h); Ara-N3 10 mM; FBS 10%; one doubling time. How it is done: (§1) The fluorescence Assimilation of Ara-N3 probes was visualized by copper-free click chemistry using sulfo-DBCO-biotin (1 mM), followed by labeling with a mouse anti-biotin Alexa Fluor 488 antibody conjugate (0.62 mg/ml stock, Jackson ImmunoResearch, dilution 1/10). The click reaction was carry-out as following: At 24 h incubation times, the culture mediums were removed, and attached cells were washed twice with PBS. Cells were detached with Tryp-LE, washed twice with PBS, and centrifuged at 13000 g for 2 min. The cellular pellets were resuspended with 10 μL of sulfo-DBCO-biotin and incubated 30 min in the dark, and at 37 C°. Then, cells were washed twice with PBS, centrifuged, and cellular pellets were resuspended with 10 μL of a mouse anti-biotin antibody solution, before to be incubated at room temperature in dark. Thereafter, cells were washed twice with PBS and small cellular suspension spots (5 μL) were put in Polysine® adhesion slides (VWR international S.A.S), in the dark room, until dry (20 min). The spots were fixed with 4% paraformaldehyde during 20 min, in dark and room temperature. Slides were then washed twice with PBS, before recovering with square cover glasses (VWR international S.A.S) using glycerol Mounting Medium (Dako) and stored at 4° C. in dark room.
(§2) The fluorescence acquisition was recorded using Olympus Microscopy IX83 (Olympus Life Science) equipped with a 60×/1.3 […]/1.4 SRI (silicone refractive index) objective, and Hamamatsu oreca flash 4 LT camera with 109 nm/pixel calibrated pixel size. The excitation light was emitted by X-CITE 120LED using the AT180/30X excited filter and signal was monitored using AT535/40m emission filter. Green light exposition time was 600 ms and white light exposition time was determined by DIC methods at […]. The acquisition area size analyzed by the Celisens dimension V1.16 software was different depending on the cell number containing in the spot.
(§3) The images were processed using count and measure unit of the Cellsens dimension V1.16 software. The background noise was deleted as follows: ROI were first defined on the background of the image and the average pixel intensity was calculated. The value thus obtained was subtracted from all pixels of the image. The fluorescence intensity of each cell was determined from a threshold set at a value of 3030. All pixels that have intensity below 3030 were not counted.
(§4) The same experiments as in example 2 with other cancer and corresponding non cancer cells were performed. The culture media were adapted to the tested cells and supplemented by 10% fetal bovine serum (FBS). Ara-N3 probe (10 mM) was added to culture media with FBS concentration (10%). The incubation times corresponded to one doubling time or twice doubling time of the tested cells (see table below).
(§5) The fluorescence signal cancer/non cancer ratios were calculated based on fluorescence intensities obtained with Ara-N3 tested on cancer and corresponding non cancer cells.

Another test concerns K562 (vs Lymphocytes T). Particulars: K562 (24 h) vs Lymphocytes T (24 h); Ara-N3 10 mM; FBS 10%; one doubling time. How it is done:
as §1, §2, §3, §4, §5

In the next test the test system is A375 (vs PIG). Particulars: A375 (26 h) vs PIG (26 h); Ara-N3 10 mM; FBS 10%; one doubling time. How it is done: as §1, §2, §3, §4, §5
For test [1], the system named is BL-2 (vs Isolated primary B cells). The note with it: BL-2 (24 h) vs Isolated primary B cells; Ara-N3 10 mM; FBS 10%. How it is done:
as §1, §2, §3, §4, §5

In test [2] the test system is DOHH-2 (vs Isolated primary B cells). The note with it: DOHH-2 (40-48 h) vs Isolated primary B cells; Ara-N3 10 mM; FBS 10%. As for the experimental part: as §1, §2, §3, §4, §5
Test [3] relates to SU-DHL-4 (vs Isolated primary B cells). Particulars: SU-DHL-4 (40 h) vs Isolated primary B cells; Ara-N3 10 mM; FBS 10%. As for the experimental part: as §1, §2, §3, §4, §5
In test [4] the test system is OCI-Ly10 (vs Isolated primary B cells). The note with it: OCI-Ly10 (24 h) vs Isolated primary B cells; Ara-N3 10 mM; FBS 10%. How it is done: as §1, §2, §3, §4, §5
In the next test the test system is Kasumi-1 (vs B12-F8). The note with it: Kasumi-1 (48 h) vs B12-F8 (24 h); Ara-N3 10 mM; FBS 10%; one doubling time. As for the experimental part:
as §1, §2, §3, §4, §5

For another test, the system named is RS4 (vs Lymphocytes T). Particulars: RS4 (35 h) vs Lymphocytes T (24 h); Ara-N3 10 mM; FBS 10%; one doubling time. As for the experimental part:
as §1, §2, §3, §4, §5

In another test the test system is NAMALWA (vs B12-F8). The note with it: NAMALWA (20 h) vs B12-F8 (24 h); Ara-N3 10 mM; FBS 10%; one doubling time. As for the experimental part: as §1, §2, §3, §4, §5
For a further test, the system named is MDA MB453 (vs HME-1). The note with it: MDA MB453 (30 h) vs HME-1 (30 h); Ara-N3 10 mM; FBS 10%; one doubling time. How it is done: as §1, §2, §3, §4, §5
The test system of test [5] is THP1 (vs Monocytes/Macrophages). Particulars: THP1 (26 h) vs Monocytes/Macrophages (26 h); Ara-N3 10 mM; FBS 10%; one doubling time. How it is done:
as §1, §2, §3, §4, §5

Another test concerns KCL22 (vs Lymphocytes). The note with it: KCL22 (24 h) vs Lymphocytes (24 h); Ara-N3 10 mM; FBS 10%; one doubling time. How it is done: as §1, §2, §3, §4, §5
The test system of the next test is MDA MB175 (vs HME-1). The note with it: MDA MB175 (30 h) vs HME-1 (30 h); Ara-N3 10 mM; FBS 10%; one doubling time. How it is done: as §1, §2, §3, §4, §5
Test [6] relates to MDA-MB-231 (vs Breast epithelial cell). Particulars: MDA-MB-231 (doubling time 40 h) vs Breast epithelial cell (40 h); Ara-N3 10 mM; FBS 10%; test at 2 doubling time. As for the experimental part:
as §1, §2, §3, §4, §5

For test [7], the system named is AGS (vs Stomach epitelial cell). Particulars: AGS (doubling time 30 h) vs Stomach epitelial cell (30 h); Ara-N3 10 mM; FBS 10%; test at 2 doubling time. As for the experimental part:
as §1, §2, §3, §4, §5

As for `[N-]=[N+]=NC[C@H]1OC(O)[C@@H](O)[C@@H]1O` (stereo partly drawn) [Ara-N3, 5-azido-5-deoxy-D-arabinofuranose], the “Cancer/Non Cancer Ratio (fluorescence signal)” value (shortened to “Cancer/Non Cancer Ratio”) in the test with A431 (vs Hacat) is 17.5; with K562 (vs Lymphocytes T), 1.6; in the test with A375 (vs PIG), 3.5; in test [1], 2.5; in test [2] it was 7.4; in test [3], 2.5. Moreover, the “Cancer/Non Cancer Ratio” value is 2.1 in [4]; 1.5 in the test on Kasumi-1 (vs B12-F8); 1.6 with RS4 (vs Lymphocytes T); 2.3 in the test with NAMALWA (vs B12-F8); 2.2 with MDA MB453 (vs HME-1); 19.5 in [5]. Moreover, the “Cancer/Non Cancer Ratio” value in the test on KCL22 (vs Lymphocytes) is recorded as 4.9; in the test with MDA MB175 (vs HME-1), 2; in test [6], 2.5; in [7] it was 2.9.
